The subject of one assay is bone marrow cells. Conditions: bone marrow cells encapsulated in type I collagen matrix gels, Mizuno et al.; cited from earlier work.
The subject of assay [1] is Raw 264.7 macrophages. The experiment in a line: Soluble delivery of DGEA to macrophages encapsulated in 3D control PEG hydrogels, iNOS/DAPI immunostaining. It is filed as cell-based, mouse. Conditions: 3D control hydrogel (3.5 mM PEG-RGDS, 5% PEG-PQ-PEG), 5 mM soluble DGEA in M1 media, 72 hrs; non-significant (p>0.05). Here is the method:
Raw 264.7 macrophages were encapsulated within the hydrogel. These quiescent M0 macrophages were allowed to equilibrate in the incubator for 24 hrs, after which M1 media was added to stimulate them towards the pro-inflammatory phenotype. At this time, 5 mM DGEA was also dissolved into the media and the samples were incubated for another 72 hrs. The samples were then fixed, stained, imaged, and analyzed. The immunofluorescent images represent DAPI stained cells and iNOS stained cells (inset (b) in FIG. 2). The 3D hydrogels were imaged using a Keyence BZ-X800 microscope and the images represent 2D slices of an entire 3D Z-stack. […] The data were statistically non-significant (p>0.05). […]
(§1) Cells were stimulated with M1 media 24 hrs post-seeding and post-encapsulation. In all studies, the effects of DGEA on the cells were assessed 72 hrs post-stimulation with M1 media by immunocytochemistry (ICC). […]
Images were quantified based on the number of iNOS^+ cells, normalized to DAPI^+ cells for each condition. Images were analyzed using the “automated cell counting of single color image” feature on ImageJ (NIH) software after a randomized, unbiased selection of images. All images were turned to 8-bit grayscale and threshold to highlight all the cells to be counted. […]

Another assay has as its system ovarian carcinoma cells. Conditions: Fishman et al.; cited from earlier work.
For assay [2], the system named is TNFα, IL-6, iNOS gene expression. The experiment in a line: RT-PCR of pro-inflammatory gene expression (TNFα, IL-6, iNOS). Format: cell-based. To be noted: FIG. 7. The source says: The results validate the inflammation inhibiting properties of DGEA by looking at pro-inflammatory gene expressions. The genes assessed include TNFα (a); IL-6 (b); and iNOS (c).
The test system of another assay is platelets. To be noted: Luzak et al.; cited from earlier work.
For a further assay, the target named is T1, α2β1 integrin (Homo sapiens, UniProt P05556+P17301).
T1 construct: Integrin α2β1 appears to play a pivotal role in macrophage polarization by affecting downstream signaling pathways
T1 sequence (P17301 30-1181): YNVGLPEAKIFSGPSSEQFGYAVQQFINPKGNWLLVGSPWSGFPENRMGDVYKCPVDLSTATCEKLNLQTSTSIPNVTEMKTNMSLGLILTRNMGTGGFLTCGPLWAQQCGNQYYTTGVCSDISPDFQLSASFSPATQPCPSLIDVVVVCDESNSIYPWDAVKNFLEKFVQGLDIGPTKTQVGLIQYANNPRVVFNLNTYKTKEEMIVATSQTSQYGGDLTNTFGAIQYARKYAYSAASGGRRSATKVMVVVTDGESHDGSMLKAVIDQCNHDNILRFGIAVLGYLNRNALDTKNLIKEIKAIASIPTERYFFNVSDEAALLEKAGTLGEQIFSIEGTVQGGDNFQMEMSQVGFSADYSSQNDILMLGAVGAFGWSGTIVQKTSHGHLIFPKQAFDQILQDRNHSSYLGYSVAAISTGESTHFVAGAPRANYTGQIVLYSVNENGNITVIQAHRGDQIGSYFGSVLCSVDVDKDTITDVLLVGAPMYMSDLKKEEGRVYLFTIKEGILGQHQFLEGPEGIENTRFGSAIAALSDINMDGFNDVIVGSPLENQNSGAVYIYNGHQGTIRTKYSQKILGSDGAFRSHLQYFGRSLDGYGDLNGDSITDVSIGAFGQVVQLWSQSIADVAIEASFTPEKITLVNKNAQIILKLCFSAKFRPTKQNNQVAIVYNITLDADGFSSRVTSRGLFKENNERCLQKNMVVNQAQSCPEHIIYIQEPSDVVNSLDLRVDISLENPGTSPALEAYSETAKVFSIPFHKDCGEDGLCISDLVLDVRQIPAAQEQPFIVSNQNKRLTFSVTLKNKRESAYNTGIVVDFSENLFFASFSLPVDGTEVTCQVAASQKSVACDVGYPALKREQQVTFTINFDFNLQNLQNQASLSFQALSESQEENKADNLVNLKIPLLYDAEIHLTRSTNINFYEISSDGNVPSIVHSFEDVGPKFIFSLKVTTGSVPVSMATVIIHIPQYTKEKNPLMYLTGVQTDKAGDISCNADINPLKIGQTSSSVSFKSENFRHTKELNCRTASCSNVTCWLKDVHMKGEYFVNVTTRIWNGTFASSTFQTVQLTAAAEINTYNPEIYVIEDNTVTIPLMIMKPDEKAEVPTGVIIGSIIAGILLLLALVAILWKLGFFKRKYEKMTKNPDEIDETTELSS
T1 sequence (P05556 21-798): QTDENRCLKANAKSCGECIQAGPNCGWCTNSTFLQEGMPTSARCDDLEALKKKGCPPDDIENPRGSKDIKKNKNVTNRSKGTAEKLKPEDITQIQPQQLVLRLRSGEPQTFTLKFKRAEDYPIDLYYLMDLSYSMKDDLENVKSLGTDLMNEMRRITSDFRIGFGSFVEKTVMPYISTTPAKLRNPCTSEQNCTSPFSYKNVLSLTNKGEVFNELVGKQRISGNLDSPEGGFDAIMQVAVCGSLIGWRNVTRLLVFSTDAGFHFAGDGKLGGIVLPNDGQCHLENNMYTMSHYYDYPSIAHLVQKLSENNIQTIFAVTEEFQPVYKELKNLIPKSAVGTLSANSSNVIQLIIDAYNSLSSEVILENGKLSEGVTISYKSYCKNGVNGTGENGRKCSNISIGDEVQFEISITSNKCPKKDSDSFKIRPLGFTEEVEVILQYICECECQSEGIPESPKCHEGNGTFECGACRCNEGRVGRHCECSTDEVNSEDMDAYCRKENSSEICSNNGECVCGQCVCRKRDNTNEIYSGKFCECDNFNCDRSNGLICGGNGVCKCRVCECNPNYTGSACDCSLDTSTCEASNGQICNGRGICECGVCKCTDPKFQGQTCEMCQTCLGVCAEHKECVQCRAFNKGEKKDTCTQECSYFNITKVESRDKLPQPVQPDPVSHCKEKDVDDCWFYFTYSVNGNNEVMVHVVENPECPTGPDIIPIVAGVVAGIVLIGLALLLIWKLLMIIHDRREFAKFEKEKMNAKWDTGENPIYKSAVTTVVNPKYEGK
To be noted: DGEA-coated plates, Cha et al.; cited from earlier work.

Assay [3] deals with Raw 264.7 macrophages. Put plainly: Soluble delivery of DGEA to 2D cultures of M1-stimulated macrophages, iNOS/DAPI immunostaining. Format: cell-based, mouse. To be noted: 2D culture, M1 media (100 ng/mL LPS, 10 ng/mL IFNγ), 5 mM soluble DGEA, 72 hrs; without DGEA 0.5±0.1; p<0.05. Here is the method: To establish interactions between DGEA and M1 macrophages, a 2D study was conducted with soluble delivery of DGEA to the media culture. […] 5 mM DGEA was dissolved in the media to assess the effects of DGEA on macrophage activation (S. Y. Yoo, M. Kobayashi, P. P. Lee, and S. W. Lee, “Early osteogenic differentiation of mouse preosteoblasts induced by collagen-derived DGEA-peptide on nanofibrous phage tissue matrices,” Biomacromolecules, vol. 12, no. 4, pp. 987-996, April 2011). After stimulation, the cells were stained for 4′,6-diamidino-2-phenylindole (DAPI) and iNOS (inset (b) of FIG. 1). The addition of 5 mM DGEA in the media reduced the number of iNOS^+ cells, as represented in insets (b) and (c) in FIG. 1. The iNOS^+ cell count was normalized to the number of DAPI^+ cells for each image chosen to be analyzed. […] Polarized iNOS^+ macrophage cells with soluble DGEA were dramatically lower than iNOS^+ macrophage cells without any presence of DGEA. […] ECM-derived peptides have been investigated in cell function. For example, the interaction between collagen and α2β1 integrin is important for the osteoblastic differentiation of bone marrow cells. […]
as §1

Assay [4] concerns Raw 264.7 macrophages. The experiment in a line: iNOS and CD206 expression in M0, M1 and M2 raw 264.7 macrophages encapsulated in control and PEG-DGEA hydrogels. It is filed as cell-based, mouse.

Take “Asp-Gly-Glu-Ala (DGEA; DGEA peptide sequence)”: the “expression of osteoblastic phenotype” value with bone marrow cells is recorded as “inhibited the expression of osteoblastic phenotype”. In addition, the “number of iNOS+ cells (normalized to DAPI+ cells)” value with Raw 264.7 macrophages [1] is “lower than the number of iNOS^+ cells without any DGEA”. Also, the “adhesion of ovarian carcinoma cells to collagen” value with ovarian carcinoma cells is listed as “block adhesion”. In addition, the “expression of pro-inflammatory mediators (TNFα, IL-6, iNOS) by RT-PCR” value in assay [2] is “significantly reduces expression”. The platelet adhesion entry with platelets is “significant inhibition in platelet adhesion”. In addition, in the assay with α2β1 integrin, the “expression of CD206 (M2 marker)” value is on record as “higher expression of CD206”. The “iNOS+ M1 activated macrophages as fraction of the total DAPI+ cells” value in the assay on Raw 264.7 macrophages [3] is listed as 0.1±0.1. Also, the iNOS expression entry in the assay with Raw 264.7 macrophages [4] (M0, M1 and M2 macrophages encapsulated in PEG-DGEA vs control hydrogels, FIG. 8) is “reduced iNOS expression”. The CD206 expression result in the assay with Raw 264.7 macrophages [4] (M1 or M2 macrophage phenotypes in PEG-DGEA hydrogels, FIG. 9) is listed as “did not appear to have any significant effects”.

(Values after patent publication US20240335500A1, “CONTROLLING PRO-INFLAMMATORY MACROPHAGE PHENOTYPE THROUGH BIOFUNCTIONAL HYDROGEL DESIGN” (UNIVERSITY OF FLORIDA RESEARCH FOUNDATION, INCORPORATED, priority 2021, published 2024).)
